Patent US10842767B2, “Use of ketone esters for prevention of CNS oxygen toxicity” (University of South Florida, priority 2011, dated 2020)
Several values for one entry are separate records, joined by “and”; a condition that tells them apart may be missing. Equal entries are not always repeated. Entries after “also recorded” stand apart in the source; their conditions may differ. Where two headings read alike, the source gives them in different places.

Experiments:
[1] = system: rats exposed to 5 ATA O2 (CNS oxygen toxicity seizures); test: Latency to seizure (CNS-OT) in rats breathing hyperbaric oxygen at 5 ATA, radio-telemetry EEG; assay type: in vivo, rat; conditions: for increase in latency to seizure (LS) compared to control (water): rats, 5 ATA O2, ~10 g/kg (3 ml) gavage 30 min before dive
Description: All animal procedures were done in accordance with the University of South Florida Institutional Animal Care and Use Committee (IACUC) guidelines. Adult male Sprague-Dawley rats (n=60), 250-300 grams, were obtained from Harlan, anesthetized in 3-5% isoflurane (in O2) and implanted with a 4ET radio-transmitter (Data Sciences International, DSI) using sterile surgical technique. One pair of leads (positive and negative poles) was implanted in the costal diaphragm at the junction with the abdominal wall for diaphragmatic electromyogram (dEMG) signals, one pair of electrodes was inserted in the pectoral muscle to acquire electrocardiogram (ECG) data, and two pairs of wires were embedded in the skull between Bregma and Lambda, with one lead on either side of midline for each pair (EEG recordings). The EMG wires were not inserted into crural diaphragmatic muscle because of the high risk of pneumothorax due to the thinness of the muscle (419 to 630 μm). 4ET radio-transmitters also monitored core body temperature and physical activity. Rats were weighed immediately before surgery and subsequently once every 7 days, just prior to the weekly exposures to HBO2. After surgery, every animal recovered for ≥1 week.
The radiotelemetry system consisted of an implantable 4ET radio-transmitter able to amplify and broadcast signals via a receiver (DSI PhysioTel, model RPC-2) connected to an acquisition interface unit (ACQ 7700 Ponemah) via electrical penetrations in the wall of the hyperbaric chamber. The acquisition interface unit was connected to a computer for real time data collection and storage. The same acquisition unit also recorded chamber pressure and temperature, which were measured, respectively, […] directly connected to the acquisition system via BNC (Bayonet Neill-Concelman) cables. Each animal was continuously monitored via a video camera (AXIS 221 Network Camera) and the video of each experiment was recorded as well.
The hyperbaric system consisted of two main elements: 1) a plexiglass chamber (˜3 liter capacity, Diamond Box, Buxco, Electronics Inc., model PLY3114), that housed the rat during the experiment, and 2) a hyperbaric chamber (Reimers System Inc.—7.8 ATA MWP), that contained the plexiglass chamber and functioned as the pressure vessel. Both chambers were connected to an air compressor (oil-less rotary scroll compressor—model DK6086, Powerex).
During each experiment (hyperbaric hyperoxia), both the main chamber and the animal chamber were filled with air. Rats were placed into the plexiglass chamber and allowed ten minutes to acclimate, at which time the plexiglass chamber was flushed with 100% O2. The animal was then allowed 15 minutes to acclimate before both chambers were compressed to 5 ATA (58.8 PSIG) at a rate of 0.7 ATA/min. […] Each experiment was visually monitored via a live camera. LS was calculated from the moment at which the internal and the external chambers reached 5 ATA until the onset of convulsions, identified as high-amplitude, high frequency spikes lasting 10 to 30 sec, followed by polyspikes and wave formation concurrent with tonic-clonic motions of forelimbs and head. […]
The details of this example are explained in the Materials and Methods section above. Briefly, the effects of ketone esters (KEs) in preventing CNS-OT in rats were assessed before, during and after HBO2 exposure by measuring various parameters. […]

[2] = Blood ketones (BHB, AcAc, acetone) and glucose after oral gavage; assay type: in vivo, rat; conditions: for blood BHB level versus control (words) / effect on blood glucose / blood AcAc / acetone level: ~10 g/kg gavage; for effect on blood glucose: over 4 hrs, relative to control (water); for blood AcAc / acetone level: acetone at 60 min; for duration of elevation of blood ketones: single oral/intragastric administration
Experimental: To determine the time course of ketosis, 18 adult male Sprague-Dawley rats (250-350 grams), pathogen-free, were purchased from a vendor (Harlan) and shipped 7 days after being implanted with carotid catheters. The rats were food (not water) deprived for 18 hours prior to the start of the experiment. […] Whole blood samples (10 μl) were acquired for analysis of glucose and BHB at USF utilizing a commercially available glucose/ketone monitoring system (Nova Max® Plus) at time 0, 30, 60, 120, 180 and 240 min. In addition, heparinized blood samples (200 μl) were collected into Eppendorf tubes at time 0, 30, 60, 120, 180 and 240 min. Samples were processed for the detection and quantification of BHB, AcAc, and acetone at Case Western Reserve University, Mouse Metabolic Phenotyping Center (MMPC). Briefly, samples were chilled on ice for 30 s, centrifuged in a micro-centrifuge (13,000 G) for 3-5 min and plasma (>100 μl), treated with reducing reagent of cold 0.2M sodium borodeuteride (NaBD4; Sigma, 205591, CAS 15681-89-7) dissolved in 0.1M NaOH (8.4 mg NaBD4 in 1 ml of 0.1M NaOH) and then immediately frozen on dry ice before storing at −80° C. Acetone was analyzed at the 60 minute time point, which was the predicted peak of blood AcAc levels (Desrochers et al. 1995). 300 μl of whole blood were collected in addition to the above collections, stabilized with cold 0.2M NaBD4, and then immediately frozen on dry ice. Samples were stored at −80° C. until analyzed for ketones. Internal standards of [^2H6]BHB or [^2H8]isopropanol were added to the treated plasma or blood samples (50 μl or 15 μl) and the BHB, AcAc (as M+1 of BHB) or acetone (as 2-propanol) metabolites were analyzed by gas chromatography-mass spectrometry (GC-MS) using an Agilent 5973 mass spectrometer, linked to a 6890 gas chromatograph equipped with an autosampler. Briefly, GC-MS conditions were either EI or CI mode (electron or chemical ionization mode); the samples were detected by selected ion monitoring as the BHB- and AcAc-trimethylsilyl derivatives (EI) or the derivative of acetone-pentafluorobenzoyl (CI). […]
Ketone measurements were taken at 30, 60, 120, 180 and 240 minutes. Blood plasma was treated with sodium borodeuteride (NaB2H4) to stabilize ketone concentration and then assayed by GC-MS. The rapid rise relating to blood ketones from BD-AcAc2 is due primarily from rapid desterfication in blood and tissues.

[3] = system: primary cultures of rat cortical neurons; test: Superoxide anion production (DHE fluorescence) in primary cortex neurons exposed to HBO2 or amyloid beta; assay type: cell-based; conditions: 60 min 5 ATA O2, NBO and HBO
Experimental: Primary dissociated neuronal cultures of the hippocampus and cortex are acquired from Brain Bits LLC, to increase time efficiency and to minimize cost associated with purchasing rats. Hippocampal or cortical tissue from Brain Bits (shipped in Hibernate®) are enzymatically and mechanically dissociated via pipette trituration. Neurons are plated on 12 mm glass coverslips and allowed to adhere for 1-2 hrs in an incubator maintained at 9-20% O2 in a humidified atmosphere. Cultures are maintained in media purchased from Brain Bits, including NbActiv1® and NbActive4. […] Fluorescent probes (for use with fluorescence and confocal microscopy)
List of fluorescence probes that will be purchased from Invitrogen: • Dihydroethidium, DHE (1-10 μM; Exλ 525, Emλ 590) detects intracellular ·O2^− generation (Bindokas et al. 1996; D'Agostino et al. 2007). • Calcein-AM (4 μM; Exλ 490, Emλ 535) detects cell volume and monitors cell viability (Crowe, 1995; Inglefield, 1998; Inglefield, 1999). • Ethidium Homodimer-1, EH-1 (6 μM; Exλ 525, Emλ 590) enters cells upon membrane damage and thus labels dead or dying cells (Bickler and Hansen 1998; Pinheiro et al. 2006). Fluorescence and Confocal Microscopy […]
Presence of intracellular ROS is measured by detection of superoxide anion using Dihydroethidium (DHE). […] Cells are washed in PBS and then visualized using fluorescent microscopy or quantified using spectrophotometry.

[4] = for blood pH after administration (FIG. 20): from 7.45
[5] = in vivo; cited from earlier work

For CC(=O)CC(=O)OCCC(C)O (stereo not shown) [BD-AcAc, R,S-1,3-butanediol acetoacetate monoester], the “latency to seizure, single rat EEG (FIG. 7)” value ([1]; HBO2 at 60 PSI (5 ATA O2), same rat without ketone ester about 8 minutes) was 110 min and the “increase in latency to seizure (LS) compared to control (water)” value (shortened to “increase in latency to seizure (LS)”) [1] was 285%.

For “(R)-1,3-butanediol ester [BHB ester, reference compound]”, the “blood BHB level versus control (words)” value ([2]; rats) was “elevated blood levels of β-hydroxybutyrate”.

In the case of Cc1ccccc1NC(=N)Nc1ccccc1C [DTG, 1,3,-di-o-tolylguanidine], the “effect on superoxide production under hyperoxia” value [3] is reported as “prevented the hyperoxia-induced increase in superoxide production”.

For C[C@H](O)CCO [BD, R,S-1,3-butanediol, reference compound], the “blood BHB level” value ([2]; rats, 10 g/kg oral gavage) was > 5 mM, the “blood BHB level versus control (words)” value ([2]; rats) was “significant increase in BHB” and the “effect on blood glucose” value ([2]; rats) was “no significant effect on blood glucose levels”. For the same compound, the “blood AcAc / acetone level” value ([2]; rats) was “only modest elevation in AcAc; also recorded: remained low or undetectable”, the “blood BHB level versus control (words)” value ([2]; rats, listed as 1,3-butanediol) was “elevated blood levels of β-hydroxybutyrate” and the “acidosis” value ([4]; acute administration) was “mild nonpathological acidosis”. For the same compound, the “mean decrease of blood pH compared to control (pH~7.5)” value (“mean decrease of blood pH” below) ([4]; after about 30 minutes) was 0.05, the “mean decrease of blood pH” value ([4]; after about one hour) was 0.1 and the “blood pH after administration (FIG. 20)” value [4] was 7.35.

In the case of CC(=O)CC(=O)OCCC(C)OC(=O)CC(C)=O (stereo not shown) [BD-AcAc2, R,S-1,3-butanediol acetoacetate diester], the total ketones ([2]; about 30 minutes after gavage) is reported as > 5 mM, the “total blood ketones (BHB, AcAc and acetone)” value ([2]; after 1 hr, average) is reported as > 6 mM and the “blood AcAc level” value ([2]; rats, 10 g/kg oral gavage) is reported as > 3 mM. For the same compound, the “blood BHB level” value ([2]; rats, 10 g/kg oral gavage) was > 3 mM, the “blood BHB level versus control (words)” value ([2]; rats) was “significant increase in BHB and AcAc at 30 minutes” and the “effect on blood glucose” value ([2]; rats) was “does not elevate blood glucose”. For the same compound, the “effect on blood glucose” value ([2]; rats, listed as KE) was “no significant effect on blood glucose levels”, the “blood AcAc / acetone level” value ([2]; rats, listed as KE) was “significantly higher at 60 minutes; also recorded: increased significantly” and the “sustained elevation of total ketones” value ([2]; single oral administration, for over 4 hrs) was > 6 mM. The “duration of elevation of blood ketones” value [2] was “over 4 h”, the “duration of elevation of blood ketones” value ([2]; listed as KE) was 4 h and > 4 h and the blood acetone level ([2]; within about 60 minutes after administration) was ~0.7 mM. The “increase in latency to seizure (LS)” value [1] was > 570%, the “increase in latency to seizure (LS)” value ([1]; listed as KE) was 574±115% and 574±116% and the “increase in latency to seizure (LS)” value ([1]; listed as dKE) was 570%. For the same compound, the “mean decrease of blood pH” value ([4]; after about 30 minutes) was 0.05, the “mean decrease of blood pH” value ([4]; after about one hour) was 0.1 and the “blood pO2” value ([4]; during the 4 hour experiment) was > 120 mmHg. The “blood pH after administration (FIG. 20)” value [4] was 7.35 and the “increase in blood pO2 levels” value ([4]; significant and sustained) was “approximately 30%”.

For MCT oil, the “level of ketones produced by supplementation” value [5] is given as < 500 µM.
